One data set has as its target P110 δ/Pi3K δ (Homo sapiens, UniProt O00329). In words: Fluorescent (HTRF) determination of PI3K enzyme activity, δ isoform. The class given is biochemical. Set-up: inhibition: dose or concentration left out as unconfirmed. The procedure, abridged: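 IC50 fitted from percent inhibition relative to blank and enzyme-only wells. Human PI3Kδ converts PIP2 to PIP3 after addition of 400 μM ATP solution, 30 min at room temperature. Product read by time-resolved FRET after stop and 6–18 h dark incubation with detection reagents.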

In a further data set the target is P110β (Homo sapiens, UniProt P42338). In words: Fluorescent (HTRF) determination of PI3K enzyme activity, β isoform. It counts as biochemical. From the text: Assay 1: Fluorescent determination of PI3Kinase Kinase enzyme activity
Phosphoinositide 3 kinases (PI3K) belong to a class of lipid kinases that play a critical role in the regulation of several key cellular processes. The PI3K are capable of phosphorylating the 3-hydroxy position of phosphoinositols thereby generating second messengers involved in downstream signalling events. The homogenous time resolved fluorescence (HTRF) assay allows detection of 3,4,5-triphosphate (PIP3) formed as a result of phosphorylation of phosphotidylinositol 4,5-biphosphate (PIP2) by PI3K isoforms such as α, β, γ or δ.
PI3K isoform activity for α, β, γ or δ was determined using a PI3K human HTRF™ Assay Kit (Millipore, Billerica, Mass.) with modifications. All incubations were carried out at room temperature. Briefly, 0.5 μl of 40× inhibitor (in 100% DMSO) or 100% DMSO were added to each well of a 384-well black plate (Greiner Bio-One, Monroe, N.C.) containing 14.5 μl 1× reaction buffer/PIP2 (10 mM MgCl2, 5 mM DTT, 1.38 μM PIP2) mix with or without enzyme and incubated for 10 min. After the initial incubation, 5 μl/well of 400 μM ATP was added and incubated for an additional 30 minutes. Reaction was terminated by adding 5 μl/well stop solution (Millipore, Billerica, Mass.). Five microliters of detection mix (Millipore, Billerica, Mass.) were then added to each well and was incubated for 6-18 h in the dark. HRTF ratio was measured on a microplate reader (BMG Labtech., Germany) at an excitation wavelength of 337 nm and emission wavelengths of 665 and 620 nm with an integration time of […]. Data were analyzed using Graphpad Prism (Graphpad software; San Diego Calif.) for IC50 determination. Percent inhibition was calculated based on the values for the blank and enzyme controls. The results are provided below in Table 2 & 3.
In general terms: In TR-FRET formats the signal depends on donor and acceptor labels being close together.

Read-outs that look alike come from different tables or passages of the source. Some results are limits rather than exact numbers.

For orientation: inhibition means the change of the read-out against control, counted positive when it falls. Usually melting point stands for the temperature, or range, at which the solid turns liquid.

P110 δ/Pi3K δ, sequence (O00329 whole entry, canonical isoform): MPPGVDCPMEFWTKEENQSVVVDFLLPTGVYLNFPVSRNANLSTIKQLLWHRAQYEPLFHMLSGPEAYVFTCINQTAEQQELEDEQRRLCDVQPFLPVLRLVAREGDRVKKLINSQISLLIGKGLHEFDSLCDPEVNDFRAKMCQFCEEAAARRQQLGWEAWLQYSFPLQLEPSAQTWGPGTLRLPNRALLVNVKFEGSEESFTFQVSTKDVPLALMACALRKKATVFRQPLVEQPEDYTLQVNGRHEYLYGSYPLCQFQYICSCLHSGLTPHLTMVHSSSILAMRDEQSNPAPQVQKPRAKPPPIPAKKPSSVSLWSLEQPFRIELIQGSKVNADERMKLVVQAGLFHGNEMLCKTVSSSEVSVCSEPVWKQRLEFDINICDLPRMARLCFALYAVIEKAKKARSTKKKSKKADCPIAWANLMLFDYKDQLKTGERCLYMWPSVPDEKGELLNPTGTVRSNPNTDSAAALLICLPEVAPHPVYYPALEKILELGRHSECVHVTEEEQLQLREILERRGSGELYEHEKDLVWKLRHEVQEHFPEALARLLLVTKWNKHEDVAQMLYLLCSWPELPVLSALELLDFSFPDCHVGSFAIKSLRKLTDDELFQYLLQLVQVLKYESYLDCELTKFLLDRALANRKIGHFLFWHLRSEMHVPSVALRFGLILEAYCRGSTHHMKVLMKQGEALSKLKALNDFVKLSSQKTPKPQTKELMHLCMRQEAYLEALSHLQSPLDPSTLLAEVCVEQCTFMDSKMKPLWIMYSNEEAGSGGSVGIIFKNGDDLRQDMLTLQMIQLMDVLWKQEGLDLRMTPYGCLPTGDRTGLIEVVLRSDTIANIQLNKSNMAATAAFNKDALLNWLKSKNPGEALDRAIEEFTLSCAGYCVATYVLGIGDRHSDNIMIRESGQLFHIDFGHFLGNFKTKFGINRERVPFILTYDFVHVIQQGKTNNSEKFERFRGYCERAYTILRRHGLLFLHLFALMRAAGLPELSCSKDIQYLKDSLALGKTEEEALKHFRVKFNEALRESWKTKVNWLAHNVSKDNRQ
P110 δ/Pi3K δ, sequence (P27986 whole entry partner, canonical isoform): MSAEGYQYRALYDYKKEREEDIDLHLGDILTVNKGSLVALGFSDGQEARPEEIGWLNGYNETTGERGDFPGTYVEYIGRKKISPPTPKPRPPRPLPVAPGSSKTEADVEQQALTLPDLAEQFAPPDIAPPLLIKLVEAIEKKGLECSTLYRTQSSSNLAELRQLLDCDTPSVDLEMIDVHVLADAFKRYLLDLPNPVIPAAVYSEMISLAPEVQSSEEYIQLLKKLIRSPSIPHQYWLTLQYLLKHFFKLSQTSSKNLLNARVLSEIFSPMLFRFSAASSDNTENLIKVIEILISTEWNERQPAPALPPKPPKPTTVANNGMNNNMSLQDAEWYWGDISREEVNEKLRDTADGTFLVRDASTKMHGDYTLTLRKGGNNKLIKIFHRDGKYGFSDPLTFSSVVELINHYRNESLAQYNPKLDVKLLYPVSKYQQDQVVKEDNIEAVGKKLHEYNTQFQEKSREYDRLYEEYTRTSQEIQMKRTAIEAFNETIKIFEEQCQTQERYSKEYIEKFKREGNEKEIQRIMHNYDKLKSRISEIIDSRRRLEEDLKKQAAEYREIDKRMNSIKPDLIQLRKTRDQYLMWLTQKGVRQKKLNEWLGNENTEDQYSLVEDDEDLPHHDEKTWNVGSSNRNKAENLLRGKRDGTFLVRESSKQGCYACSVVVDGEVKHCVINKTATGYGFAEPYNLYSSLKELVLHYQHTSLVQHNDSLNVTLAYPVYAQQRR
P110β, sequence (P42338 whole entry, canonical isoform): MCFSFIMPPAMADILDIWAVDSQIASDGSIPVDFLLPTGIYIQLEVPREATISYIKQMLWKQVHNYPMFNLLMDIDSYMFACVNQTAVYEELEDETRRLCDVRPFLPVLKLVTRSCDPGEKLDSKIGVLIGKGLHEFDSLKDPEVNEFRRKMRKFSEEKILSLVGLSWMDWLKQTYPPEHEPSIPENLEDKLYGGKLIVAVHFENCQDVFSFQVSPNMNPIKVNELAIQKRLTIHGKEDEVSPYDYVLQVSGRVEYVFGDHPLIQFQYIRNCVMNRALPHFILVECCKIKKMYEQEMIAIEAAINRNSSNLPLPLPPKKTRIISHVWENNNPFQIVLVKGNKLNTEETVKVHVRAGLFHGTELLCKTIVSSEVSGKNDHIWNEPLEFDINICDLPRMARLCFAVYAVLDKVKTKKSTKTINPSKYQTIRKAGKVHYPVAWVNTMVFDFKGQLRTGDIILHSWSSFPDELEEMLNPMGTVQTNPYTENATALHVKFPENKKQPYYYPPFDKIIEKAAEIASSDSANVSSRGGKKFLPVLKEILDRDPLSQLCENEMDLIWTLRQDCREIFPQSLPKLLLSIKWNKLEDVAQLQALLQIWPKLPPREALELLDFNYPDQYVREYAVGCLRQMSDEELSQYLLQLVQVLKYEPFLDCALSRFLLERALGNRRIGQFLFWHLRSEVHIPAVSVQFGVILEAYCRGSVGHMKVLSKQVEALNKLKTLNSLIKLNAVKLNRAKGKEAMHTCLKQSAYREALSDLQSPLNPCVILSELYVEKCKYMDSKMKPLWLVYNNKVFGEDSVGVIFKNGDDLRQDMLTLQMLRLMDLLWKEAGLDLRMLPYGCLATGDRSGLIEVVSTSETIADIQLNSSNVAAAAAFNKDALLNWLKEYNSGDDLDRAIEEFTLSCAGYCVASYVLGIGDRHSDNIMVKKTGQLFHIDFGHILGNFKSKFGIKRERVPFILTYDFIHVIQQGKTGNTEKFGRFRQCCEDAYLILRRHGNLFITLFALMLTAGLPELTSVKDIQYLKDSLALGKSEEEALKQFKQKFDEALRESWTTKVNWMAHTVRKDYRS
P110β, sequence (P27986 whole entry partner, canonical isoform): as the sequence (P27986 whole entry partner, canonical isoform) above

As to `CCOc1ccc(-c2nn(C(C)c3oc4ccccc4c(=O)c3-c3cccc(F)c3)c3ncnc(N)c23)cc1` (centres unmarked) [Example 156, 2-(1-(4-amino-3-(4-ethoxyphenyl)-1H-pyrazolo[3,4-d]pyrimidin-1-yl)ethyl)-3-(3-fluorophenyl)-4H-chromen-4-one], the melting point lay within 229 to 232 °C. Moreover, the inhibition against P110 δ/Pi3K δ was less than 50%. Also, on P110β, the inhibition at 1 µM lay in the range of 25 to 50%.

`Cc1n[nH]c2cc(-c3nn([C@H](C)c4oc5ccccc5c(=O)c4-c4cccc(F)c4)c4ncnc(N)c34)ccc12` (single isomer, unassigned) [Example 129, (−)-2-(1-(4-amino-3-(3-methyl-1H-indazol-6-yl)-1H-pyrazolo[3,4-d]pyrimidin-1-yl)ethyl)-3-(3-fluorophenyl)-4H-chromen-4-one] returned a melting point of 157 to 160 °C. In addition, on P110 δ/Pi3K δ (read-out: P110 δ/ Pi3K δ IC 50 nM), the IC50 is more than 500 nM. Also, the “% inhibition (1 μM) P110β” value on P110β (1 µM) was “++ (++ is less than equal to 50% inhibition but more than equal to 25% at 1 μM)”.

For the compound `CC(c1oc2ccccc2c(=O)c1-c1cccc(F)c1)n1nc(-c2ccc(OCc3ccccc3)cc2)c2c(N)ncnc21` (centres unmarked) [Example 147, 2-(1-(4-amino-3-(4-(benzyloxy)phenyl)-1H-pyrazolo[3,4-d]pyrimidin-1-yl)ethyl)-3-(3-fluorophenyl)-4H-chromen-4-one], the melting point was in the range of 176 to 178 °C. The same compound showed an inhibition against P110 δ/Pi3K δ of less than 50%. At P110β, this compound yielded an inhibition at 1 µM of 25 to 50%.

With `CCCOc1cccc(-c2nn(C(C)c3oc4ccccc4c(=O)c3-c3cccc(F)c3)c3ncnc(N)c23)c1` (centres unmarked) [Example 154, 2-(1-(4-amino-3-(3-propoxyphenyl)-1H-pyrazolo[3,4-d]pyrimidin-1-yl)ethyl)-3-(3-fluorophenyl)-4H-chromen-4-one], the melting point fell in the range of 178 to 182 °C. Also, at P110 δ/Pi3K δ, the inhibition was less than 50%. Moreover, the inhibition at 1 µM against P110β was less than 25%.

The compound `CC(c1oc2ccccc2c(=O)c1-c1cccc(F)c1)n1nc(-c2cnn(Cc3ccccc3)c2)c2c(N)ncnc21` (centres unmarked) [Example 134, 2-(1-(4-amino-3-(1-benzyl-1H-pyrazol-4-yl)-1H-pyrazolo[3,4-d]pyrimidin-1-yl)ethyl)-3-(3-fluorophenyl)-4H-chromen-4-one] returned a melting point of 140 to 142 °C. This compound came in with an inhibition against P110 δ/Pi3K δ of less than 50%. The same compound had an inhibition at 1 µM against P110β of 25 to 50%.

Compound `Cc1cc(-c2nn(C(C)c3oc4ccccc4c(=O)c3-c3cccc(F)c3)c3ncnc(N)c23)ccn1` (centres unmarked) [Example 135, 2-(1-(4-amino-3-(2-methylpyridin-4-yl)-1H-pyrazolo[3,4-d]pyrimidin-1-yl)ethyl)-3-(3-fluorophenyl)-4H-chromen-4-one] registered a melting point of 266 to 268 °C. Moreover, on P110 δ/Pi3K δ, the inhibition is less than 50%. The inhibition at 1 µM against P110β was in the range of 25 to 50%.

For `CC(c1oc2ccccc2c(=O)c1-c1cccc(F)c1)n1nc(-c2ccc(OC(F)(F)F)cc2)c2c(N)ncnc21` (centres unmarked) [Example 145, 2-(1-(4-amino-3-(4-(trifluoromethoxy)phenyl)-1H-pyrazolo[3,4-d]pyrimidin-1-yl)ethyl)-3-(3-fluorophenyl)-4H-chromen-4-one], the melting point lay in the range of 224 to 226 °C. Moreover, the inhibition at P110 δ/Pi3K δ was less than 50%. At P110β, this compound displayed an inhibition at 1 µM of 25 to 50%.

Take `CC(c1oc2ccccc2c(=O)c1-c1cccc(F)c1)n1nc(-c2ccc3c(c2)OCCCO3)c2c(N)ncnc21` (centres unmarked) [Example 136, 2-(1-(4-amino-3-(3,4-dihydro-2H-benzo[b][1,4]dioxepin-7-yl)-1H-pyrazolo[3,4-d]pyrimidin-1-yl)ethyl)-3-(3-fluorophenyl)-4H-chromen-4-one]: the melting point was 234 to 237 °C. This compound registered an inhibition against P110 δ/Pi3K δ of less than 50%. Also, the inhibition at 1 µM at P110β lay within 25 to 50%.

The compound `CC(c1oc2ccccc2c(=O)c1-c1cccc(F)c1)n1nc(-c2cccc3c2oc2ccccc23)c2c(N)ncnc21` (centres unmarked) [Example 138, 2-(1-(4-amino-3-(dibenzo[b,d]furan-4-yl)-1H-pyrazolo[3,4-d]pyrimidin-1-yl)ethyl)-3-(3-fluorophenyl)-4H-chromen-4-one] returned a melting point of 238 to 240 °C. The compound also displayed an inhibition at 1 µM on P110β of 25 to 50%.

The compound `CC(c1oc2ccccc2c(=O)c1-c1cccc(F)c1)n1nc(-c2ccco2)c2c(N)ncnc21` (centres unmarked) [Example 155, 2-(1-(4-amino-3-(furan-2-yl)-1H-pyrazolo[3,4-d]pyrimidin-1-yl)ethyl)-3-(3-fluorophenyl)-4H-chromen-4-one] displayed a melting point of 234 to 236 °C. At P110 δ/Pi3K δ, this compound came in with an inhibition of 50 to 100%. The inhibition at 1 µM against P110β is less than 25%.

In the case of `Cc1c[nH]c2cc(-c3nn(C(C)c4oc5ccccc5c(=O)c4-c4cccc(F)c4)c4ncnc(N)c34)ccc12` (centres unmarked) [Example 117, 2-(1-(4-amino-3-(3-methyl-1H-indol-6-yl)-1H-pyrazolo[3,4-d]pyrimidin-1-yl)ethyl)-3-(3-fluorophenyl)-4H-chromen-4-one], the melting point was in the range of 262 to 265 °C. Moreover, the “P110 δ/ Pi3K δ % inhibition*” value at P110 δ/Pi3K δ (@ 0.3 uM) is “++ (++ is less than equal to 100% inhibition but more than equal to 50% at 1 μM)”. In addition, the “% inhibition (1 μM) P110β” value on P110β was “+ (+ is less than equal to 25% inhibition at 1 μM)”.

Regarding `Cc1noc(C)c1-c1nn(C(C)c2oc3ccccc3c(=O)c2-c2cccc(F)c2)c2ncnc(N)c12` (centres unmarked) [Example 153, 2-(1-(4-amino-3-(3,5-dimethylisoxazol-4-yl)-1H-pyrazolo[3,4-d]pyrimidin-1-yl)ethyl)-3-(3-fluorophenyl)-4H-chromen-4-one], the melting point was in the range of 218 to 222 °C. At P110 δ/Pi3K δ, this compound came in with an inhibition of less than 50%. Further, the inhibition at 1 µM against P110β is less than 25%.

Take `O=c1c(-c2ccc(F)cc2)c(CN2CCOCC2)oc2ccc(Br)cc12` [Example 17, 6-Bromo-3-(4-fluorophenyl)-2-(morpholinomethyl)-4H-chromen-4-one]: the inhibition at 1 µM against P110β is less than 25%.

`CC(c1oc2ccccc2c(=O)c1-c1cccc(F)c1)n1nc(-c2csc(CO)c2)c2c(N)ncnc21` (centres unmarked) [Example 114, 2-(1-(4-amino-3-(5-(hydroxymethyl)thiophen-3-yl)-1H-pyrazolo[3,4-d]pyrimidin-1-yl)ethyl)-3-(3-fluorophenyl)-4H-chromen-4-one] yielded a melting point of 154 to 156 °C. The inhibition on P110 δ/Pi3K δ fell in the range of 50 to 100%. Moreover, the inhibition at 1 µM against P110β is less than 25%.

Compound `CC(c1oc2ccccc2c(=O)c1-c1cccc(F)c1)n1nc(-c2ccc(Cl)s2)c2c(N)ncnc21` (centres unmarked) [Example 152, 2-(1-(4-amino-3-(5-chlorothiophen-2-yl)-1H-pyrazolo[3,4-d]pyrimidin-1-yl)ethyl)-3-(3-fluorophenyl)-4H-chromen-4-one] came in with a melting point of 226 to 229 °C. Besides, the inhibition at P110 δ/Pi3K δ was less than 50%. The inhibition at 1 µM against P110β is less than 25%.

`O=c1c(-c2cccc(F)c2)c(CNc2ncnc3[nH]cnc23)oc2ccc(F)cc12` [Example 122, 2-((9H-purin-6-ylamino)methyl)-6-fluoro-3-(3-fluorophenyl)-4H-chromen-4-one] came in with a melting point of 229 to 232 °C. For the same compound, the inhibition at P110 δ/Pi3K δ was less than 50%. For the same compound, the inhibition at 1 µM against P110β lay in the range of 50 to 100%.

With `COc1c(F)cc(-c2nn(C(C)c3oc4ccccc4c(=O)c3-c3cccc(F)c3)c3ncnc(N)c23)cc1F` (centres unmarked) [Example 126, 2-(1-(4-amino-3-(3,5-difluoro-4-methoxyphenyl)-1H-pyrazolo[3,4-d]pyrimidin-1-yl)ethyl)-3-(3-fluorophenyl)-4H-chromen-4-one], at P110β, the inhibition at 1 µM is less than 25%.

For the compound `COc1c(F)cc(-c2nn(Cc3oc4ccc(F)cc4c(=O)c3-c3cccc(F)c3)c3ncnc(N)c23)cc1F` [Example 127, 2-((4-amino-3-(3,5-difluoro-4-methoxyphenyl)-1H-pyrazolo[3,4-d]pyrimidin-1-yl)methyl)-6-fluoro-3-(3-fluorophenyl)-4H-chromen-4-one], the inhibition at 1 µM on P110β lay within 50 to 100%.

For `CC(c1oc2ccccc2c(=O)c1-c1cccc(F)c1)n1nc(-c2ccc(S(C)(=O)=O)cc2)c2c(N)ncnc21` (centres unmarked) [Example 149, 2-(1-(4-amino-3-(4-(methylsulfonyl)phenyl)-1H-pyrazolo[3,4-d]pyrimidin-1-yl)ethyl)-3-(3-fluorophenyl)-4H-chromen-4-one], the melting point lay in the range of 259 to 262 °C. The inhibition at P110 δ/Pi3K δ is less than 50%. The compound also had an inhibition at 1 µM at P110β of 25 to 50%.

`O=c1c(-c2ccccc2)c(CNc2ncnc3[nH]cnc23)oc2ccc(F)cc12` [Example 123, 2-((9H-purin-6-ylamino)methyl)-6-fluoro-3-phenyl-4H-chromen-4-one] displayed a melting point of 183 to 186 °C. The compound further returned an inhibition at P110 δ/Pi3K δ of less than 50%. Besides, the inhibition at 1 µM at P110β is less than 25%.

The record behind these values is patent US9421209B2, “Kinase modulators” (Rhizen Pharmaceuticals SA, priority 2009, dated 2016).
